From patent publication US10266497B2 (ABIDE THERAPEUTICS, INC., priority 2017, dated 2019)

How the values were obtained:
[1] = target: T1, MAGL (Mus musculus, UniProt O35678); assay: In vitro competitive activity-based protein profiling, MAGL, mouse; conditions: read-out: MAGL % inh. 1 μM (mouse)
T1 sequence (O35678 1-303): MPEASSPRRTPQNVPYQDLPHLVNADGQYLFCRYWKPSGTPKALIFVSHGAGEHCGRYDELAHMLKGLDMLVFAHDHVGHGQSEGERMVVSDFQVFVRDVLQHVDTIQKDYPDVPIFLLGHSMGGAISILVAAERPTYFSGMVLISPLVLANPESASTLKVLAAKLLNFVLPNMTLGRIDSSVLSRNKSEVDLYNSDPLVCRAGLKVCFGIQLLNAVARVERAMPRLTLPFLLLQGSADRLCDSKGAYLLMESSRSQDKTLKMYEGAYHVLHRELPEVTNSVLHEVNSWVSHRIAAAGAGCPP
Method: (§1) Biological Evaluation In Vitro Competitive Activity-Based Protein Profiling.
(§2) Proteomes (mouse brain membrane fraction for mouse assays; human prefrontal cortex membrane fractions for human assays) (50 mL, 1.0 mg/mL total protein concentration) were preincubated with varying concentrations of inhibitors at 37° C. After 30 min, FP-Rh (1.0 mL, 50 mM in DMSO) was added and the mixture was incubated for another 30 min at 37° C. Reactions were quenched with SDS loading buffer (15 μL—4λ) and run on SDS-PAGE.

[2] = target: T2, MAGL (Homo sapiens, UniProt Q99685); assay: In vitro competitive activity-based protein profiling, MAGL, human; conditions: for inhibition at 10 µM: read-out: MAGL % inh. (human) at 10 uM; for inhibition at 1 µM: read-out: MAGL % inh. 1 μM (human)
T2 sequence (Q99685 1-303): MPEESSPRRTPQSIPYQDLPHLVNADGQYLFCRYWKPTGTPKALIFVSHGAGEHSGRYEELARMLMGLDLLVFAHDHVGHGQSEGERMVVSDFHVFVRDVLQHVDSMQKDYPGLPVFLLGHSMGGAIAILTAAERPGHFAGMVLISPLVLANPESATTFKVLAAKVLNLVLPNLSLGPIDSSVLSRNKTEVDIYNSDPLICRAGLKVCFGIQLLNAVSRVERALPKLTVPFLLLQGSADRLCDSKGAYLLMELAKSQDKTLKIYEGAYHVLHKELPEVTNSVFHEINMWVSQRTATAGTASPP
Method: as §1, §2

| inhibition at 1 µM [1] | inhibition at 10 µM [2] | inhibition at 1 µM [2] | IC50 [2] | Compound |
| --- | --- | --- | --- | --- |
| 0 to 25% | > 75% |  |  | O=C(O)c1ccn(C(=O)N2CCC3(CCN(Cc4ccc(N5CC6COCC6C5)cc4Cl)C3)CC2)n1 (stereo not drawn) [Example 400, 1-(2-(2-chloro-4-(tetrahydro-1H-furo[3,4-c]pyrrol-5(3H)-yl)benzyl)-2,8-diazaspiro[4.5]decane-8-carbonyl)-1H-pyrazole-3-carboxylic acid] |
| > 75% |  | > 75% |  | O=C(O)c1nn(C(=O)N2CCN(Cc3cccc(Oc4cc(C(F)(F)F)ccn4)c3)CC2)cc1Cl [Example 399, 4-chloro-1-(4-(3-((4-(trifluoromethyl)pyridin-2-yl)oxy)benzyl)piper-azine-1-carbonyl)-1H-pyrazole-3-carboxylic acid] |
| > 75% |  | > 75% |  | O=C(O)c1ccn(C(=O)N2C[C@H]3C[C@H](Oc4ccccc4C4CCOCC4)C[C@H]3C2)n1 [Example 268, 1-(trans-5-(2-(tetrahydro-2H-pyran-4-yl)phenoxy)octa-hydrocyclopenta[c]pyrrole-2-carbonyl)-1H-pyrazole-3-carboxylic acid] |
| > 75% |  | > 75% |  | O=C(O)c1ccn(C(=O)N2CCC3(CCN(Cc4cc(Cl)ccc4OC(F)(F)F)C3)CC2)n1 [Example 371, 1-(2-(5-chloro-2-(trifluoromethoxy)benzyl)-2,8-diazaspiro[4.5]decane-8-carbonyl)-1H-pyrazole-3-carboxylic acid] |
| > 75% |  | > 75% | 100 to 1000 nM | Cc1cc(-c2ccccc2)ccc1CN1CCN(C(=O)n2ccc(C(=O)O)n2)[C@@H](C)C1 [Example 246, (S)-1-(2-methyl-4-((3-methyl-[1,1′-biphenyl]-4-yl)methyl)piperazine-1-carbonyl)-1H-pyrazole-3-carboxylic acid] |
| > 75% |  | > 75% |  | O=C(O)c1ccn(C(=O)N2CCN(Cc3ccc(C(F)(F)F)cc3N3CC[C@H](O)C3)CC2)n1 [Example 332, (S)-1-(4-(2-(3-hydroxypyrrolidin-1-yl)-4-(trifluoromethyl)benzyl)piperazine-1-carbonyl)-1H-pyrazole-3-carboxylic acid] |
| > 75% |  | > 75% |  | CN(Cc1ccc(N2CCCC2)c(C(F)(F)F)c1)C1(C)CCN(C(=O)n2ccc(C(=O)O)n2)CC1 [Example 383, 1-(4-methyl-4-(methyl(4-(pyrrolidin-1-yl)-3-(trifluoromethyl)benzyl)amino)piper-idine-1-carbonyl)-1H-pyrazole-3-carboxylic acid] |
| > 75% |  | > 75% |  | O=C(O)c1ccn(C(=O)N2CCC3(CCN(Cc4cc(Cl)ccc4N4CCC4)C3)CC2)n1 [Example 317, 1-(2-(2-(azetidin-1-yl)-5-chlorobenzyl)-2,8-diazaspiro[4.5]decane-8-carbonyl)-1H-pyrazole-3-carboxylic acid] |
| > 75% |  | > 75% |  | NC(=O)c1ccn(C(=O)N2CCC3(CCCN3C(=O)c3cc4ccc(C(F)(F)F)cc4s3)CC2)n1 [Example 389, 1-(1-(6-(trifluoromethyl)benzo[b]thiophene-2-carbonyl)-1,8-diazaspiro[4.5]decane-8-carbonyl)-1H-pyrazole-3-carboxamide] |
| > 75% |  | > 75% |  | C[C@H]1CN(Cc2cc(Cl)cc(C(F)(F)F)c2)CCN1C(=O)n1ccc(C(N)=O)n1 [Example 271, (S)-1-(4-(3-chloro-5-(trifluoromethyl)benzyl)-2-methylpiperazine-1-carbonyl)-1H-pyrazole-3-carboxamide] |
| > 75% |  | > 75% |  | O=C(O)c1ccn(C(=O)N2CCN(Cc3ccc(N4CC5COCC5C4)cc3C(F)(F)F)CC2)n1 (stereo not drawn) [Example 379, 1-(4-(4-(tetrahydro-1H-furo[3,4-c]pyrrol-5(3H)-yl)-2-(trifluoromethyl)benzyl)piperazine-1-carbonyl)-1H-pyrazole-3-carboxylic acid] |
| > 75% |  | > 75% |  | O=C(O)c1ccn(C(=O)N2CCN(Cc3ccc(C(F)(F)F)cc3N3CC4CCC(C3)O4)CC2)n1 [Example 380, 1-(4-(2-(8-oxa-3-azabicylco[3.2.1]octan-3-yl)-4-(trifluoromethyl)benzyl)piperazine-1-carbonyl)-1H-pyrazole-3-carboxylic acid] |
| > 75% |  | > 75% |  | O=C(O)c1ccn(C(=O)N2CCC(OCc3cc(N4CCCC4)cc(C(F)(F)F)c3)CC2)n1 [Example 331, 1-(4-((3-(pyrrolidin-1-yl)-5-(trifluoromethyl)benzyl)oxy)piper-idine-1-carbonyl)-1H-pyrazole-3-carboxylic acid] |
| > 75% |  | > 75% |  | O=C(O)c1ccn(C(=O)N2C[C@H]3C[C@H](Oc4cccc(N5CCCC5)c4)C[C@H]3C2)n1 [Example 234, 1-(trans-5-(3-(pyrrolidin-1-yl)phenoxy)octa-hydrocyclopenta[c]pyrrole-2-carbonyl)-1H-pyrazole-3-carboxylic acid] |
| > 75% |  | > 75% |  | CC1(NCc2ccc(C(F)(F)F)cc2N2CCCC2)CCN(C(=O)n2ccc(C(=O)O)n2)CC1 [Example 361, 1-(4-methyl-4-((2-(pyrrolidin-1-yl)-4-(trifluoromethyl)benzyl)amino)piper-idine-1-carbonyl)-1H-pyrazole-3-carboxylic acid] |

More lines, now with the values behind:

| Compound | inhibition at 1 µM [1] | inhibition at 10 µM [2] | inhibition at 1 µM [2] | IC50 [2] |
| --- | --- | --- | --- | --- |
| Cc1cn(C(=O)N2C[C@H]3C[C@H](OCc4cccc(C(F)(F)F)c4)C[C@H]3C2)nc1C(=O)O [Example 290, 4-methyl-1-(trans-5-((3-(trifluoromethyl)benzyl)oxy)octa-hydrocyclopenta[c]pyrrole-2-carbonyl)-1H-pyrazole-3-carboxylic acid] | > 75% |  | > 75% |  |
| O=C(O)c1ccn(C(=O)N2CCC3(CCN(Cc4cccc(-c5ccccn5)c4)C3)CC2)n1 [Example 301, 1-(2-(3-(pyridin-2-yl)benzyl)-2,8-diazaspiro[4.5]decane-8-carbonyl)-1H-pyrazole-3-carboxylic acid] | 0 to 25% | > 75% |  |  |
| C[C@@H]1CN(Cc2cccc(Oc3ccc(F)cn3)c2)CCN1C(=O)n1ccc(C(=O)O)n1 [Example 295, (R)-1-(4-(3-((5-fluoropyridin-2-yl)oxy)benzyl)-2-methylpiperazine-1-carbonyl)-1H-pyrazole-3-carboxylic acid] | > 75% |  | 50 to 75% |  |
| O=C(O)c1nn(C(=O)N2C[C@H]3C[C@H](OCc4cc(F)cc(Cl)c4)C[C@H]3C2)cc1Cl [Example 296, 4-chloro-1-(trans-5-((3-chloro-5-fluorobenzyl)oxy)octahydrocyclopenta [c]pyrrole-2-carbonyl)-1H-pyrazole-3-carboxylic acid] | > 75% |  | > 75% |  |
| COc1cc(-c2ccccc2)ccc1CN1CCN(C(=O)n2ccc(C(=O)O)n2)[C@H](C)C1 [Example 283, (R)-1-(4-((3-methoxy-[1,1′-biphenyl]-4-yl)methyl)-2-methylpiperazine-1-carbonyl)-1H-pyrazole-3-carboxylic acid] | > 75% |  | > 75% |  |
| O=C(O)c1ccn(C(=O)N2C[C@H]3C[C@@H](OCc4cccc(-c5ccccc5)c4)C[C@H]3C2)n1 [Example 279, 1-(cis-5-([1,1′-biphenyl]-3-ylmethoxy)octa-hydrocyclopenta[c]pyrrole-2-carbonyl)-1H-pyrazole-3-carboxylic acid] | > 75% |  | > 75% |  |
| O=C(O)c1nn(C(=O)N2CCN(Cc3cc(F)cc(Oc4ccc(Cl)cc4)c3)CC2)cc1Cl [Example 378, 4-chloro-1-(4-(3-(4-chlorophenoxy)-5-fluorobenzyl)piper-azine-1-carbonyl)-1H-pyrazole-3-carboxylic acid] | > 75% |  | > 75% |  |
| Cc1cn(C(=O)N2C[C@H]3C[C@H](OCc4cccc(C(F)(F)F)c4C)C[C@H]3C2)nc1C(=O)O [Example 306, 4-methyl-1-(trans-5-((2-methyl-3-(trifluoromethyl)benzyl)oxy)octa-hydrocyclopenta[c]pyrrole-2-carbonyl)-1H-pyrazole-3-carboxylic acid] | > 75% |  | > 75% |  |
| O=C(O)c1nn(C(=O)N2CCN(Cc3cc(Cl)cc(-c4cncnc4)c3)CC2)cc1Cl [Example 323, 4-chloro-1-(4-(3-chloro-5-(pyrimidin-5-yl)benzyl)piperazine-1-carbonyl)-1H-pyrazole-3-carboxylic acid] | > 75% |  | > 75% |  |
| Cc1cn(C(=O)N2C[C@H]3C[C@H](Oc4ccccc4-c4ccccc4)C[C@H]3C2)nc1C(=O)O [Example 281, 1-(trans-5-([1,1′-biphenyl]-2-yloxy)octahydro-cyclopenta[c]pyrrole-2-carbonyl)-4-methyl-1H-pyrazole-3-carboxylic acid] | > 75% |  | > 75% |  |
